From patent US20060069132A1, “Azolecarboxamide herbicides” (priority 2004, published 2006)
Like-named read-outs stand apart in the source and are kept apart here.

Legend:
[1] = test system: wild oat; experiment: Test B postemergence herbicide test; format: in vivo, Avena fatua; conditions: Avena fatua, post-emergence, 336 h, postemergence, visual rating, scale 0 (no effect) to 100 (complete control), read-out: Oat, Wild plant response rating
Procedure, shortened: (§1)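 Plants grow to 1- to 4-leaf stage (2–18 cm) for postemergence spraying, or to 2-leaf stage for the paddy test. Formulated compound is applied. Greenhouse holding lasts 13–15 days. Response is scored visually relative to controls, 0 no effect to 100 complete control; a dash means no result.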

[2] = test system: cocklebur; experiment: Test B pre-/postemergence herbicide test; format: in vivo, Xanthium strumarium; conditions: Xanthium strumarium; for pest or weed control at 125 g/ha: 125 g ai/ha; for pest or weed control at 500 g/ha: 500 g ai/ha
Procedure, shortened: (§2)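 Visual rating, 0 (no effect) to 100 (complete control), versus untreated controls after 13–15 d in greenhouse. Pre- and postemergence applications (postemergence plants 2–18 cm, 1–4 leaves); flooded paddy arm at 2-leaf stage. Compounds in non-phytotoxic solvent plus surfactant.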

[3] = test system: corn; experiment: Test B pre-/postemergence herbicide test; format: in vivo, Zea mays; conditions: Zea mays; for plant injury at 125 g/ha: 125 g ai/ha
Procedure, shortened: (§3)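 Greenhouse pot assay with simultaneous preemergence (treated seed) and postemergence (2–18 cm seedlings) applications of surfactant-containing, non-phytotoxic solvent formulations. Response scored visually 13–15 days later on a 0–100 scale, 100 meaning complete control.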

[4] = test system: barnyardgrass; experiment: Test B flooded paddy test; format: in vivo, Echinochloa crus-galli; conditions: Echinochloa crus-galli, 336 h, 1000 g ai/ha, visual rating, scale 0 to 100 (0 no effect, 100 complete control), 13 to 15 days, read-out: Barnyardgrass plant response rating
Procedure, shortened: (§4)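 Visual ratings, 0 (no effect) to 100 (complete control), made versus controls after 13–15 d greenhouse. Paddy plants treated at 2-leaf stage; postemergence plants at 1- to 4-leaf stage, 2–18 cm tall.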

[5] = test system: lambsquarters; experiment: Test B pre-/postemergence herbicide test; format: in vivo, Chenopodium album; conditions: Chenopodium album, 336 h; for pest or weed control at 125 g/ha: 125 g ai/ha; for pest or weed control at 500 g/ha: 500 g ai/ha
Procedure, shortened: as §3

[6] = test system: small flower umbrella sedge; experiment: Test B flooded paddy test; format: in vivo, Cyperus difformis; conditions: Cyperus difformis, 336 h, 1000 g ai/ha, visual rating, scale 0 to 100 (0 no effect, 100 complete control), 13 to 15 days, read-out: Sedge, Umbrella plant response rating
Procedure, shortened: as §4

[7] = test system: Surinam grass; experiment: Test B pre-/postemergence herbicide test; format: in vivo, Urochloa decumbens; conditions: Urochloa decumbens; for pest or weed control at 125 g/ha: 125 g ai/ha; for pest or weed control at 500 g/ha: 500 g ai/ha
Procedure, shortened: as §3

[8] = test system: giant foxtail; experiment: Test B pre-/postemergence herbicide test; format: in vivo, Setaria faberi; conditions: Setaria faberi, 336 h; for pest or weed control at 125 g/ha: 125 g ai/ha; for pest or weed control at 500 g/ha: 500 g ai/ha
Procedure, shortened: as §3

[9] = test system: rice; experiment: Test B flooded paddy test; format: in vivo, Oryza sativa; conditions: Oryza sativa, 336 h, 1000 g ai/ha, visual rating, scale 0 to 100 (0 no effect, 100 complete control), 13 to 15 days, read-out: Rice plant response rating
Procedure, shortened: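 Greenhouse test; postemergence application to plants at 1–4 leaves (2–18 cm); paddy species at 2 leaves; evaluated visually vs controls at 13–15 days; scale 0–100 (100 = complete control).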

[10] = test system: morningglory; experiment: Test B pre-/postemergence herbicide test; format: in vivo, Ipomoea coccinea; conditions: Ipomoea, 336 h; for pest or weed control at 125 g/ha: 125 g ai/ha; for pest or weed control at 500 g/ha: 500 g ai/ha
Procedure, shortened: as §2

[11] = test system: wheat; experiment: Test B postemergence herbicide test; format: in vivo, Triticum aestivum; conditions: Triticum aestivum, post-emergence, 336 h, postemergence, visual rating, scale 0 (no effect) to 100 (complete control), read-out: Wheat plant response rating
Procedure, shortened: as §1

[12] = test system: large crabgrass; experiment: Test B pre-/postemergence herbicide test; format: in vivo, Digitaria sanguinalis; conditions: Digitaria sanguinalis; for pest or weed control at 125 g/ha: 125 g ai/ha; for pest or weed control at 500 g/ha: 500 g ai/ha
Procedure, shortened: as §3

[13] = test system: velvetleaf; experiment: Test B pre-/postemergence herbicide test; format: in vivo, Abutilon theophrasti; conditions: Abutilon theophrasti, 336 h; for pest or weed control at 125 g/ha: 125 g ai/ha; for pest or weed control at 500 g/ha: 500 g ai/ha
Procedure, shortened: as §3

[14] = test system: barnyardgrass; experiment: Test B pre-/postemergence herbicide test; format: in vivo, Echinochloa crus-galli; conditions: Echinochloa crus-galli; for pest or weed control at 125 g/ha: 125 g ai/ha; for pest or weed control at 500 g/ha: 500 g ai/ha
Procedure, shortened: as §2

[15] = test system: pigweed; experiment: Test B pre-/postemergence herbicide test; format: in vivo, Amaranthus retroflexus; conditions: Amaranthus retroflexus, 336 h; for pest or weed control at 125 g/ha: 125 g ai/ha; for pest or weed control at 500 g/ha: 500 g ai/ha
Procedure, shortened: as §3

[16] = post-emergence, postemergence, visual rating, scale 0 (no effect) to 100 (complete control), read-out: Cocklebur plant response rating
[17] = post-emergence, postemergence, visual rating, scale 0 (no effect) to 100 (complete control), read-out: Lambsquarters plant response rating
[18] = post-emergence, postemergence, visual rating, scale 0 (no effect) to 100 (complete control), read-out: Surinam Grass plant response rating
[19] = post-emergence, postemergence, visual rating, scale 0 (no effect) to 100 (complete control), read-out: Foxtail, Giant plant response rating
[20] = post-emergence, postemergence, visual rating, scale 0 (no effect) to 100 (complete control), read-out: Morningglory plant response rating
[21] = post-emergence, postemergence, visual rating, scale 0 (no effect) to 100 (complete control), read-out: Crabgrass, Large plant response rating
[22] = post-emergence, postemergence, visual rating, scale 0 (no effect) to 100 (complete control), read-out: Velvetleaf plant response rating
[23] = post-emergence, postemergence, visual rating, scale 0 (no effect) to 100 (complete control), read-out: Barnyardgrass plant response rating
[24] = post-emergence, postemergence, visual rating, scale 0 (no effect) to 100 (complete control), read-out: Pigweed plant response rating

SMILES: CCc1nn(C(C)(C)C)cc1C(=O)Nc1cccc(C(=O)N(CC)CC)c1 [Compound 182, N-[3-[(diethylamino)carbonyl]phenyl]-1-(1,1-dimethylethyl)-3-ethyl-1H-pyrazole-4-carboxamide]
- pest or weed control at 125 g/ha ([1]; 125 g ai/ha): 20%
- pest or weed control at 500 g/ha ([1]; 500 g ai/ha): 30%
- pest or weed control at 125 g/ha [2, 16]: 50%
- pest or weed control at 500 g/ha [2, 16]: 60%
- pest or weed control at 125 g/ha ([2]; pre-emergence, 0 = no effect, 100 = complete control, read-out: Cocklebur plant response rating (0 to 100 scale)): 0%
- pest or weed control at 500 g/ha ([2]; pre-emergence, visual rating 0-100, 0 no effect, 100 complete control, read-out: Plant response rating, Cocklebur): 0%
- plant injury at 125 g/ha ([3]; post-emergence, postemergence, visual rating, scale 0 (no effect) to 100 (complete control), read-out: Corn plant response rating): 30%
- plant injury at 500 g/ha ([3]; post-emergence, postemergence, 500 g ai/ha, visual rating, scale 0 (no effect) to 100 (complete control), read-out: Corn plant response rating): 30%
- plant injury at 125 g/ha ([3]; pre-emergence, 0 = no effect, 100 = complete control, read-out: Corn plant response rating (0 to 100 scale)): 0%
- Corn plant response rating (crop injury, 0 = no effect, 100 = complete kill) at 500 g/ha ([3]; pre-emergence, 500 g ai/ha, visual rating 0-100, 0 no effect, 100 complete control): 0%
- pest or weed control at 1000 g/ha [4]: 40%
- pest or weed control at 125 g/ha [5, 17]: 60%
- pest or weed control at 500 g/ha [5, 17]: 70%
- pest or weed control at 125 g/ha ([5]; pre-emergence, 0 = no effect, 100 = complete control, read-out: Lambsquarters plant response rating (0 to 100 scale)): 20%
- pest or weed control at 500 g/ha ([5]; pre-emergence, visual rating 0-100, 0 no effect, 100 complete control, read-out: Plant response rating, Lambsquarters): 100%
- pest or weed control at 1000 g/ha [6]: 80%
- pest or weed control at 125 g/ha [7, 18]: 10%
- pest or weed control at 500 g/ha [7, 18]: 20%
- pest or weed control at 125 g/ha ([7]; pre-emergence, 0 = no effect, 100 = complete control, read-out: Surinam Grass plant response rating (0 to 100 scale)): 20%
- pest or weed control at 500 g/ha ([7]; pre-emergence, visual rating 0-100, 0 no effect, 100 complete control, read-out: Plant response rating, Surinam Grass): 60%
- pest or weed control at 125 g/ha [8, 19]: 0%
- pest or weed control at 500 g/ha [8, 19]: 20%
- pest or weed control at 125 g/ha ([8]; pre-emergence, 0 = no effect, 100 = complete control, read-out: Foxtail, Giant plant response rating (0 to 100 scale)): 30%
- pest or weed control at 500 g/ha ([8]; pre-emergence, visual rating 0-100, 0 no effect, 100 complete control, read-out: Plant response rating, Foxtail, Giant): 100%
- plant injury at 1000 g/ha [9]: 0%
- pest or weed control at 125 g/ha [10, 20]: 50%
- pest or weed control at 500 g/ha [10, 20]: 70%
- pest or weed control at 125 g/ha ([10]; pre-emergence, 0 = no effect, 100 = complete control, read-out: Morningglory plant response rating (0 to 100 scale)): 10%
- pest or weed control at 500 g/ha ([10]; pre-emergence, visual rating 0-100, 0 no effect, 100 complete control, read-out: Plant response rating, Morningglory): 30%
- plant injury at 125 g/ha ([11]; 125 g ai/ha): 0%
- plant injury at 500 g/ha ([11]; 500 g ai/ha): 10%
- pest or weed control at 125 g/ha [12, 21]: 20%
- pest or weed control at 500 g/ha [12, 21]: 30%
- pest or weed control at 125 g/ha ([12]; pre-emergence, 0 = no effect, 100 = complete control, read-out: Crabgrass, Large plant response rating (0 to 100 scale)): 70%
- pest or weed control at 500 g/ha ([12]; pre-emergence, visual rating 0-100, 0 no effect, 100 complete control, read-out: Plant response rating, Crabgrass, Large): 100%
- pest or weed control at 125 g/ha [13, 22]: 0%
- pest or weed control at 500 g/ha [13, 22]: 60%
- pest or weed control at 125 g/ha ([13]; pre-emergence, 0 = no effect, 100 = complete control, read-out: Velvetleaf plant response rating (0 to 100 scale)): 0%
- pest or weed control at 500 g/ha ([13]; pre-emergence, visual rating 0-100, 0 no effect, 100 complete control, read-out: Plant response rating, Velvetleaf): 70%
- pest or weed control at 125 g/ha [14, 23]: 30%
- pest or weed control at 500 g/ha [14, 23]: 50%
- pest or weed control at 125 g/ha ([14]; pre-emergence, 0 = no effect, 100 = complete control, read-out: Barnyardgrass plant response rating (0 to 100 scale)): 20%
- pest or weed control at 500 g/ha ([14]; pre-emergence, visual rating 0-100, 0 no effect, 100 complete control, read-out: Plant response rating, Barnyardgrass): 80%
- pest or weed control at 125 g/ha [15, 24]: 50%
- pest or weed control at 500 g/ha [15, 24]: 70%
- pest or weed control at 125 g/ha ([15]; pre-emergence, 0 = no effect, 100 = complete control, read-out: Pigweed plant response rating (0 to 100 scale)): 100%
- pest or weed control at 500 g/ha ([15]; pre-emergence, visual rating 0-100, 0 no effect, 100 complete control, read-out: Plant response rating, Pigweed): 100%
